Experimental data published in ChEMBL document CHEMBL3108748, “Telomere maintenance as a target for drug discovery” (J Med Chem, 2014).

Legend:
[1] = biological target: T1, Telomerase reverse transcriptase (Homo sapiens, UniProt O14746); assay: Inhibition of human telomerase activity in human Jurkat cells by TRAP assay; assay type: cell-based
[2] = biological target: T1, Telomerase reverse transcriptase; assay: Inhibition of human telomerase activity by TRAP assay
[3] = biological target: Telomerase reverse transcriptase (Rattus norvegicus, UniProt Q673L6); assay: Inhibition of rat telomerase by TRAP assay
Sequence of Telomerase reverse transcriptase (Rattus norvegicus, UniProt Q673L6) (Q673L6 whole entry): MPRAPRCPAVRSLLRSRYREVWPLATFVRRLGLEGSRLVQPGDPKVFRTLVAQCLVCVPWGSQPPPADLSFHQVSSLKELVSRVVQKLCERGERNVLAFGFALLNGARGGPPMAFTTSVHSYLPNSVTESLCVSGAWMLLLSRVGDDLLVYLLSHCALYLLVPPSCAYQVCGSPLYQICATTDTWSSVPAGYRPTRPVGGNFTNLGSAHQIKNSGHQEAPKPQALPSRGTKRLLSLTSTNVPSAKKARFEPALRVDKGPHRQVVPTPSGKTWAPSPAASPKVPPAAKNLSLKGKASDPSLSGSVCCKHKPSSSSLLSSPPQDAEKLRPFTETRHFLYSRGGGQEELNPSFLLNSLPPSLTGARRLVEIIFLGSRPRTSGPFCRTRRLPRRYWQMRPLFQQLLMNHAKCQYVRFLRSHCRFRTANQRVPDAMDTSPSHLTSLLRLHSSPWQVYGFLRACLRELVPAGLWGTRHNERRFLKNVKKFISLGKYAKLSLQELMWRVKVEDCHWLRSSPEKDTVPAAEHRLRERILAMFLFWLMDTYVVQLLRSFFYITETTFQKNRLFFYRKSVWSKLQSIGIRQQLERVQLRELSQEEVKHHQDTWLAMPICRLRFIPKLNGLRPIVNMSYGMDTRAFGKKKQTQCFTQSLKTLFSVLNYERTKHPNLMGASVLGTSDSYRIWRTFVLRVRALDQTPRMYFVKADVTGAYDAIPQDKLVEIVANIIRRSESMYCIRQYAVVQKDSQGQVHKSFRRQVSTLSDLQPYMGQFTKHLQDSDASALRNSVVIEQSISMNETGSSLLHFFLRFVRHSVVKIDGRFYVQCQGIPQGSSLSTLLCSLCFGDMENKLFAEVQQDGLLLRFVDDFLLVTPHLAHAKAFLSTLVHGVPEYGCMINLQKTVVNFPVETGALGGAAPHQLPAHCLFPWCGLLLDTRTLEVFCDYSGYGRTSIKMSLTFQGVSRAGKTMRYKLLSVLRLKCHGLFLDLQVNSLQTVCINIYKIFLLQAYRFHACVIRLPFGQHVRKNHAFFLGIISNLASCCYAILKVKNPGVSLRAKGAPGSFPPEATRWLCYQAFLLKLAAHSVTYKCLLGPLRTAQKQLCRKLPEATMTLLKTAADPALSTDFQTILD

[4] = biological target: T1, Telomerase reverse transcriptase; assay: Inhibition of human telomerase activity after 8 mins by SYBR Green staining-based TRAP assay

T1 sequence (O14746 whole entry): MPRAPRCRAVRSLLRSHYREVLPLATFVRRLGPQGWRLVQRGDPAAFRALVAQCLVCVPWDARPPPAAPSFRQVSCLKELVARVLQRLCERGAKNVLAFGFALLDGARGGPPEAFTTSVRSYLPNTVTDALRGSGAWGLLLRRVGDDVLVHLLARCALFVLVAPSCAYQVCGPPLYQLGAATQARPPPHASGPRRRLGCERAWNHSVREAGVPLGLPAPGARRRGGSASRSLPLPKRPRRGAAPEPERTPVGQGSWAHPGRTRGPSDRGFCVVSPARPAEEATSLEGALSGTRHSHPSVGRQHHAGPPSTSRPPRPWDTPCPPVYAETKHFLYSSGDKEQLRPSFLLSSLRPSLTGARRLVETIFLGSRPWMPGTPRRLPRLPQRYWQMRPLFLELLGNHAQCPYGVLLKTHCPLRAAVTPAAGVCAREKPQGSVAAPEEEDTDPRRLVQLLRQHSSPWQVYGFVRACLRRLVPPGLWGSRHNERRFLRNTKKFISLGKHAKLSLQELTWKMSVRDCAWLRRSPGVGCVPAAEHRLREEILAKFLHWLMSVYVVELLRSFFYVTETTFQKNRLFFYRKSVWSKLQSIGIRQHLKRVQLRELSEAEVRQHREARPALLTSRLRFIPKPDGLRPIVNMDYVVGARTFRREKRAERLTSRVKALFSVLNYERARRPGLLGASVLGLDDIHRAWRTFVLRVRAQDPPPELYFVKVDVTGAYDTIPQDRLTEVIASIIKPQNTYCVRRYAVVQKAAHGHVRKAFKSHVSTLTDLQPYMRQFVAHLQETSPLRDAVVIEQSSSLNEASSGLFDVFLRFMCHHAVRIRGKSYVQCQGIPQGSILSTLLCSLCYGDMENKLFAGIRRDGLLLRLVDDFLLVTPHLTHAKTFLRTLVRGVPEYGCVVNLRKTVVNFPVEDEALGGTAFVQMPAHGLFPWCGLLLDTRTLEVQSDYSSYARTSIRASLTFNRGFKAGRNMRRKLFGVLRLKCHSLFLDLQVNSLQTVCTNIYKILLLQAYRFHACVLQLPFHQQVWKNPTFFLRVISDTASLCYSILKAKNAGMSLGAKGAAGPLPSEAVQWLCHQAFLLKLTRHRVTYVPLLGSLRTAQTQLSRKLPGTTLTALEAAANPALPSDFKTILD

COc1ccc2c(c1)CC[C@@H]1[C@@H]2CC[C@]2(C)[C@@H](NCCCCCCN3C(=O)C=CC3=O)CC[C@@H]12
IC50 [1]: 200 nM

N=C(N)Nc1nc(-c2cc(Cl)sc2Cl)cs1
IC50 [2]: 1000 nM

O=c1ccsn1-c1cccc(C(F)(F)F)c1
IC50 [3]: 1000 nM

O=[N+]([O-])/C=C/c1cccc(Oc2cc(Cl)cc(Cl)c2)c1
IC50 [4]: 400 nM
